Patent US20240391923A1, “METHIONINE ADENOSYLTRANSFERASE 2A INHIBITOR FOR TREATING MTAP DELETION-TYPE CANCER” (SUZHOU GENHOUSE BIO CO., LTD., priority 2022, published 2024)
Like-named read-outs stand apart in the source and are kept apart here.

Columns and labels:
[1] = system: SDMA in human colon cancer cell line HCT116; assay: Cell symmetric dimethylarginine (SDMA) test, In-cell Western, HCT116 (MTAP wild-type); type: cell-based; conditions: Homo sapiens, HCT-116, 96 h
How it was run: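 SDMA level, an indirect readout of cellular MAT2A inhibition, measured by In-cell Western as background-subtracted 800/700 nm signal against DRAQ5. Cells exposed 4 days to six 1:4-diluted doses from 6 μM; inhibition relative to DMSO, IC50 from sigmoidal fit.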

Hut-78 cell strain = assay: Tumor cell proliferation inhibition assay (CellTiter-Glo), Hut-78; type: cell-based; conditions: Homo sapiens, HuT78, 120 h, Hut-78 cells, 5-day treatment
Method: After the HCT116-MTAP-knockout (−/−) cell strain, the HCT116-MTAP wild-type(+/+)-cell strain, the DOHH-2 cell strain, or the Hut-78 cell strain was treated with the test compound for 5 days, the ATP level was measured using a CellTiter-Glo kit of Promega to evaluate the inhibition of the test compound against the growth of the tumor cell strain.
In the present application, the HCT116-MTAP-knockout (−/−) cell strain, the HCT116-MTAP wild-type (+/+)-cell strain, the DOHH-2 cell strain, or the Hut-78 cell strain was seeded into a 96-well cell culture plate at an appropriate cell density. After 24 h, the cells were treated using the test compounds diluted 1:3 fold at the highest concentration of 10 μM for 10 gradients, and a DMSO treatment group was set up separately. The cells were cultured in a 37° C./5% CO2 incubator for 5 days.

[2] = system: HCT116-MTAP wild-type (+/+)-cell strain; assay: Tumor cell proliferation inhibition assay (CellTiter-Glo), HCT116-MTAP wild-type (+/+); type: cell-based; conditions: Homo sapiens, 120 h, HCT116-MTAP wild-type (+/+) cells, 5-day treatment
How it was run: (§1)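 Ten-point compound titration (1:3, highest 10 μM) started 24 h after plating, DMSO group included; cultures kept 5 days at 37° C. with 5% CO2 before CellTiter-Glo ATP readout of growth inhibition.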

[3] = system: SDMA in HCT116-MTAP-knockout cell line; assay: Cell symmetric dimethylarginine (SDMA) test, In-cell Western, HCT116-MTAP-knockout; type: cell-based; conditions: Homo sapiens, 96 h
[4] = molecular target: MAT2A recombinant protein (Homo sapiens, UniProt P31153); assay: MAT2A inhibitory activity (malachite green colorimetric enzyme assay); type: biochemical
Chain of MAT2A recombinant protein (P31153 whole entry): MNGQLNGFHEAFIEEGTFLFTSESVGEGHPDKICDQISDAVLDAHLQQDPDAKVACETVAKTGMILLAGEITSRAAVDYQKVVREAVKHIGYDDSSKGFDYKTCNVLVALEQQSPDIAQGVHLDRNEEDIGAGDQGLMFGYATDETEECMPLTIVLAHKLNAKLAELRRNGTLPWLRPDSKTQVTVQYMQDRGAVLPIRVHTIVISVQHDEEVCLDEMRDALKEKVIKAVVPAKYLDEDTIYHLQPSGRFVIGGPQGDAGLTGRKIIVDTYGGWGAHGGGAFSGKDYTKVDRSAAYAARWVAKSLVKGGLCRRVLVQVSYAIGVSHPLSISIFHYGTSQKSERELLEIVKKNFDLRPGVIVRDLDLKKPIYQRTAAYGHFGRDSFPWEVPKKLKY
How it was run: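 Compounds tested over 10 points, 3-fold dilutions, top final concentration 1000 nM. Enzyme reaction: MAT2A, L-methionine, ATP, room temperature, 60 min, in HEPES pH 7.5 buffer with KCl, MgCl2 and DTT; inorganic phosphate read colorimetrically (malachite green, A630). Inhibition vs log concentration fitted for IC50.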

[5] = system: HCT116-MTAP-knockout (−/−) cell strain; assay: Tumor cell proliferation inhibition assay (CellTiter-Glo), HCT116-MTAP-knockout (-/-); type: cell-based; conditions: Homo sapiens, 120 h, HCT116-MTAP-knockout (−/−) cells, 5-day treatment
How it was run: as §1

[6] = IC50 score class, read-out: Cell 96 h SDMA Inhibition (HCT116-MTAP+/+) (score)
[7] = read-out: Cell 96 h SDMA inhibition (HCT116-MTAP+/+)
[8] = IC50 score, read-out: Tumor cell 5-day relative growth inhibition (Hut-78) (nM), score
[9] = IC50 value, read-out: Tumor cell 5-day relative growth inhibition (Hut-78)
[10] = IC50 score, read-out: Tumor cell 5-day relative growth inhibition (HCT116-MTAP+/+) (nM), score
[11] = IC50 value, read-out: Tumor cell 5-day relative growth inhibition (HCT116-MTAP+/+)
[12] = IC50 score class, read-out: Cell 96 h SDMA Inhibition (HCT116-MTAP−/−) (score)
[13] = read-out: Cell 96 h SDMA Inhibition (HCT116-MTAP−/−)
[14] = IC50 score class, read-out: MAT2A Inhibition (score)
[15] = IC50 score, read-out: Tumor cell 5-day relative growth inhibition (HCT116-MTAP−/−) (nM), score
[16] = IC50 value, read-out: Tumor cell 5-day relative growth inhibition (HCT116-MTAP−/−)

| Structure (SMILES) | IC50 [1, 6] [nM] | IC50 [1, 7] [nM] | IC50 (Hut-78 cell strain; [8]) [nM] | IC50 (Hut-78 cell strain; [9]) [nM] | IC50 [2, 10] [nM] | IC50 [2, 11] [nM] | IC50 [3, 12] [nM] | IC50 [3, 13] [nM] | IC50 [4, 14] [nM] | IC50 ([4]; read-out: MAT2A Inhibition) [nM] | IC50 [5, 15] [nM] | IC50 [5, 16] [nM] |
| --- | --- | --- | --- | --- | --- | --- | --- | --- | --- | --- | --- | --- |
| Cc1[nH]nc2c(=O)n(-c3cccnc3)c3nc(C(F)(F)F)ccc3c12 [Compound B216] | 200 to 1000 | 433 | < 500 | 245 | ≥ 2000 | 3590 | < 200 | 134 | < 100 | 25.3 | – | – |
| Cn1cc2c(n1)c(=O)n(-c1cccnc1C1CC1)c1nc(C(F)(F)F)ccc21 (single isomer, unassigned) [Compound B213] | 200 to 1000 | 206 | < 500 | 21.8 | 500 to 2000 | 1740 | < 200 | 25 | – | – | – | – |
| Cc1ncccc1-n1c(=O)c2nn(C3CC3)cc2c2ccc(Cl)cc21 [Compound B226] | 200 to 1000 | 919 | < 500 | 27.7 | 500 to 2000 | 1030 | < 200 | 16.5 | < 100 | 30.9 | – | – |
| O=c1c2nn(CC3CC3)cc2c2ccc(C(F)(F)F)nc2n1-c1cccnc1 [Compound B199] | 200 to 1000 | 899 | < 500 | 323 | ≥ 2000 | 53800 | < 200 | 184 | < 100 | 53.7 | < 500 | 181 |
| Cn1cc2c(n1)c(=O)n(-c1ccc(F)c(O)c1)c1nc(C(F)(F)F)ccc21 [Compound B228] | > 3000 | 3220 | ≥ 2000 | 3450 | ≥ 2000 | > 2000 | 1000 to 3000 | 2910 | < 100 | 37.3 | – | – |
| Cc1ncccc1-n1c(=O)c2[nH]ncc2c2ccc(C3CC3)nc21 [Compound B95] | > 3000 | > 3000 | < 500 | 18.8 | 500 to 2000 | 621 | < 200 | 4 | < 100 | 48.2 | – | – |
| O=c1c2nn(C3CC3)cc2c2ccc(C(F)(F)F)nc2n1-c1cccnc1 [Compound B215] | 1000 to 3000 | 1180 | < 500 | 310 | ≥ 2000 | 4200 | 200 to 1000 | 210 | < 100 | 21.7 | < 500 | 104 |
| Cc1ncccc1-n1c(=O)c2nn(CC3CC3)cc2c2ccc(C(F)(F)F)nc21 [Compound B191] | 1000 to 3000 | 1290 | < 500 | 95.6 | 500 to 2000 | 942 | < 200 | 29.3 | < 100 | 41 | < 500 | 35.6 |
| Cc1cncc(-n2c(=O)c3nn(C)cc3c3ccc(C(F)(F)F)nc32)c1 [Compound B217] | > 3000 | > 3000 | ≥ 2000 | 5430 | ≥ 2000 | > 2000 | 1000 to 3000 | 1820 | – | – | – | – |
| O=c1c2nn(C(F)F)cc2c2ccc(Cl)cc2n1-c1cccnc1 [Compound B55] | 1000 to 3000 | 1520 | < 500 | 83 | ≥ 2000 | 3570 | < 200 | 118 | < 100 | 18 | < 500 | 104 |
